Results taken from paper PMC7738869, “A novel STAT3 inhibitor W2014-S regresses human non-small cell lung cancer xenografts and sensitizes EGFR-TKI acquired resistance” (Theranostics, 2021).
Several values for one entry are separate records, joined by “and”; a condition that tells them apart may be missing. Equal entries are not always repeated. Where two headings read alike, the source gives them in different places.

Tests used:
[1] = biological target: full-length wild-type STAT3 (Homo sapiens, UniProt P40763); assay: Surface plasmon resonance analysis of binding to STAT3; settings: SPR
Method: Biacore 8K and Biacore Insight Evaluation software were used to analyze the interaction between the agents and the protein full-length wild-type STAT3 to detect the binding affinity. Purified STAT3 (100 μg/mL) without Tris and glycerin was injected onto the CM5 Chip (GE, USA) for immobilization. Several concentrations of W2014-S or W2014-R dissolved in running buffer (1×PBS with filtration, 0.01% DMSO) were flown over the chip to produce response signals. The kinetics and affinities were calculated by the Biacore Insight Evolution software, and the results were determined as the binding affinity (KD).

Pharmacokinetic study = assay type: in vivo, SD rats; settings: for MRT inf: read-out: MRTINF_obs
Method: W2014-S was given to SD rats (male, 230-260g, n = 6) by gavage and intravenous administration. The rats were fasted for 12 h before administration and remained fasting for 2 h. For oral gavage, W2014-S was dissolved in DMSO/0.5% HPMC (5/95, v/v/), and W2014-S was dissolved in DMSO/EtOH/PEG300/0.9% NaCl (5/5/40/50, v/v/v/v) for intravenous administration. The pharmacokinetic (PK) profiles were next evaluated in SD rats.

Chain of full-length wild-type STAT3 (P40763 whole entry): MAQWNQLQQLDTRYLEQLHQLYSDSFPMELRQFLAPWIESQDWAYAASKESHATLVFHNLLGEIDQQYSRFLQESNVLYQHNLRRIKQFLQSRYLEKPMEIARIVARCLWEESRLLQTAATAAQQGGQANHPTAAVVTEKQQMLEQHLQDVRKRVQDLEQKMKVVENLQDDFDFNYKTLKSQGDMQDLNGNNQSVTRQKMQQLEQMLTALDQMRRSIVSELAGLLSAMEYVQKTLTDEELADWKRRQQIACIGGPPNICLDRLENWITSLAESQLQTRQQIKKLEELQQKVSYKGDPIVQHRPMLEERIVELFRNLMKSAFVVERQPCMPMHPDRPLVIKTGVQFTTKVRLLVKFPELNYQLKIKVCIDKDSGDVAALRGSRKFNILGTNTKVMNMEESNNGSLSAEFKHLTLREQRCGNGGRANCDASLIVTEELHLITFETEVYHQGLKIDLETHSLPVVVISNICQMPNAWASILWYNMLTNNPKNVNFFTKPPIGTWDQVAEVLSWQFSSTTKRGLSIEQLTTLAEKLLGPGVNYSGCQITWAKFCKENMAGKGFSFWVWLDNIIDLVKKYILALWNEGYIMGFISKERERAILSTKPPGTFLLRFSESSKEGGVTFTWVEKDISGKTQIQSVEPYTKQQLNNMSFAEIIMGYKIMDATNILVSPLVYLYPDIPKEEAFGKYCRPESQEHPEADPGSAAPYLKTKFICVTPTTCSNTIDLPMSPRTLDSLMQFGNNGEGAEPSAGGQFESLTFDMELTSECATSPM

C[C@H](Oc1ccc(-c2nc3nc(C4=CCN(C(=O)OC(C)(C)C)CC4)ccc3[nH]2)cc1)c1ccccc1 [W2014-S]
Kd [1]: 3.64 µM
Concentration in rat plasma, individual animals 4-6 (Pharmacokinetic study; i.v. 3 mg/kg, 0.05 h, 3 mg/kg): 0.335 µg/mL and 0.339 µg/mL
Concentration in rat plasma, individual animals 4-6 (Pharmacokinetic study; i.v. 3 mg/kg, 0.25 h, 3 mg/kg): 0.145 µg/mL and 0.134 µg/mL
Concentration in rat plasma, individual animals 4-6 (Pharmacokinetic study; i.v. 3 mg/kg, 0.75 h, 3 mg/kg): 0.0669 µg/mL and 0.0801 µg/mL
Concentration in rat plasma, individual animals 4-6 (Pharmacokinetic study; i.v. 3 mg/kg, 2.00 h, 3 mg/kg): 0.0176 µg/mL and 0.0226 µg/mL
Concentration in rat plasma, individual animals 4-6 (Pharmacokinetic study; i.v. 3 mg/kg, 4.00 h, 3 mg/kg): 0.0036 µg/mL and 0.005 µg/mL
Concentration in rat plasma, individual animals 4-6 (Pharmacokinetic study; i.v. 3 mg/kg, 8.00 h, 3 mg/kg): 0.0011 µg/mL and 0.0026 µg/mL and 0.0022 µg/mL
Concentration in rat plasma, individual animals 4-6 (Pharmacokinetic study; i.v. 3 mg/kg, 24.0 h, 3 mg/kg): 0.0013 µg/mL and 0.0012 µg/mL
concentration at 0.05 h (Pharmacokinetic study; male, SD, rat, plasma, iv, 3 mg/kg, i.v. 3 mg/kg, 0.05 h, read-out: Concentration in rat plasma, individual animals 4-6): 0.454 µg/mL
concentration at 0.05 h (Pharmacokinetic study; male, SD, rat, plasma, iv, 3 mg/kg, i.v. 3 mg/kg, 0.05 h, read-out: Concentration in rat plasma, mean): 0.376 µg/mL
concentration at 0.25 h (Pharmacokinetic study; male, SD, rat, plasma, iv, 3 mg/kg, i.v. 3 mg/kg, 0.25 h, read-out: Concentration in rat plasma, individual animals 4-6): 0.159 µg/mL
concentration at 0.25 h (Pharmacokinetic study; male, SD, rat, plasma, iv, 3 mg/kg, i.v. 3 mg/kg, 0.25 h, read-out: Concentration in rat plasma, mean): 0.146 µg/mL
concentration at 0.75 h (Pharmacokinetic study; male, SD, rat, plasma, iv, 3 mg/kg, i.v. 3 mg/kg, 0.75 h, read-out: Concentration in rat plasma, individual animals 4-6): 0.0593 µg/mL
concentration at 0.75 h (Pharmacokinetic study; male, SD, rat, plasma, iv, 3 mg/kg, i.v. 3 mg/kg, 0.75 h, read-out: Concentration in rat plasma, mean): 0.0688 µg/mL
concentration at 2 h (Pharmacokinetic study; male, SD, rat, plasma, iv, 3 mg/kg, i.v. 3 mg/kg, 2.00 h, read-out: Concentration in rat plasma, individual animals 4-6): 0.0134 µg/mL
concentration at 2 h (Pharmacokinetic study; male, SD, rat, plasma, iv, 3 mg/kg, i.v. 3 mg/kg, 2.00 h, read-out: Concentration in rat plasma, mean): 0.0179 µg/mL
concentration at 4 h (Pharmacokinetic study; male, SD, rat, plasma, iv, 3 mg/kg, i.v. 3 mg/kg, 4.00 h, read-out: Concentration in rat plasma, individual animals 4-6): 0.0029 µg/mL
concentration at 4 h (Pharmacokinetic study; male, SD, rat, plasma, iv, 3 mg/kg, i.v. 3 mg/kg, 4.00 h, read-out: Concentration in rat plasma, mean): 0.00383 µg/mL
concentration at 8 h (Pharmacokinetic study; male, SD, rat, plasma, iv, 3 mg/kg, i.v. 3 mg/kg, 8.00 h): 0.00197 µg/mL
concentration at 24 h (Pharmacokinetic study; male, SD, rat, plasma, iv, 3 mg/kg, i.v. 3 mg/kg, 24.0 h, read-out: Concentration in rat plasma, individual animals 4-6): 0.0009 µg/mL
concentration at 24 h (Pharmacokinetic study; male, SD, rat, plasma, iv, 3 mg/kg, i.v. 3 mg/kg, 24.0 h, read-out: Concentration in rat plasma, mean): 0.00113 µg/mL
half-life (Pharmacokinetic study; male, SD, rat, plasma, iv, 3 mg/kg, i.v. 3 mg/kg, individual animals 4-6): 15.3 h
AUC(0-inf) (Pharmacokinetic study; male, SD, rat, plasma, iv, 3 mg/kg, rat, i.v. 3 mg/kg, individual animals 4-6, read-out: AUCINF_obs): 0.228 µg·h/mL
AUC(0-t) (Pharmacokinetic study; male, SD, rat, plasma, iv, 3 mg/kg, rat, i.v. 3 mg/kg, individual animals 4-6, read-out: AUClast): 0.208 µg·h/mL
clearance (Pharmacokinetic study; male, SD, rat, plasma, iv, 3 mg/kg, rat, i.v. 3 mg/kg, individual animals 4-6, read-out: CL_obs): 13.1 L/h/kg
MRT inf (Pharmacokinetic study; male, SD, rat, plasma, iv, 3 mg/kg, rat, i.v. 3 mg/kg, individual animals 4-6): 5.79 h
MRT inf (Pharmacokinetic study; male, SD, rat, plasma, iv, 3 mg/kg, rat, i.v. 3 mg/kg, mean): 6.3 h
concentration at 0.25 h (Pharmacokinetic study; male, SD, rat, plasma, po, 10 mg/kg, p.o. 10 mg/kg, 0.25 h, read-out: Concentration in rat plasma, mean): 0.0196 µg/mL
concentration at 0.5 h (Pharmacokinetic study; male, SD, rat, plasma, po, 10 mg/kg, p.o. 10 mg/kg, 0.50 h): 0.0225 µg/mL
concentration at 1 h (Pharmacokinetic study; male, SD, rat, plasma, po, 10 mg/kg, p.o. 10 mg/kg, 1.00 h): 0.0161 µg/mL
concentration at 2 h (Pharmacokinetic study; male, SD, rat, plasma, po, 10 mg/kg, p.o. 10 mg/kg, 2.00 h, read-out: Concentration in rat plasma, individual animals 1-3): 0.0057 µg/mL
concentration at 2 h (Pharmacokinetic study; male, SD, rat, plasma, po, 10 mg/kg, p.o. 10 mg/kg, 2.00 h, read-out: Concentration in rat plasma, mean): 0.00723 µg/mL
concentration at 4 h (Pharmacokinetic study; male, SD, rat, plasma, po, 10 mg/kg, p.o. 10 mg/kg, 4.00 h, read-out: Concentration in rat plasma, mean): 0.00783 µg/mL
concentration at 8 h (Pharmacokinetic study; male, SD, rat, plasma, po, 10 mg/kg, p.o. 10 mg/kg, 8.00 h): 0.000633 µg/mL
concentration at 24 h (Pharmacokinetic study; male, SD, rat, plasma, po, 10 mg/kg, p.o. 10 mg/kg, 24.0 h, read-out: Concentration in rat plasma, mean): 0 µg/mL
half-life (Pharmacokinetic study; male, SD, rat, plasma, po, 10 mg/kg, p.o. 10 mg/kg, individual animals 1-3): 1.21 h
